Measurements reported in US7074798B2, “Xanthine derivative and DPPIV inhibitor” (Eisai Co., Ltd, priority 2002, dated 2006).
Where a name gives a salt, the structure may show the parent alone.

What follows are compounds tested against T1, DPP-IV obtained from swine kidney (Sus scrofa, UniProt P22411) (assay: Determination of the inhibition action of DPPIV). Details: Gly-Pro-p-nitroanilide 0.33 mM, absorbance 405 nm.
T1 construct: DPP-IV obtained from swine kidney; from tissue; host or cells: swine kidney
Format: biochemical
Description: DPP-IV obtained from swine kidney was dissolved in reaction buffer (50 mM Tris-HCl pH 7.4, 0.1% BSA) at a concentration of 10 mU/mL, and 110 μl of the solution was added. Then, medicament (15 μl) was added thereto, and the mixture was incubated at room temperature for 20 minutes. Gly-Pro-p-nitroanilide (25 μl, final concentration: 0.33 mM) dissolved to 2 mM was added to the mixture to start enzymatic reaction. The reaction time was 20 minutes, and 1N phosphoric acid solution (25 μl) was added to the mixture to quench the reaction.

T1 sequence (P22411 whole entry): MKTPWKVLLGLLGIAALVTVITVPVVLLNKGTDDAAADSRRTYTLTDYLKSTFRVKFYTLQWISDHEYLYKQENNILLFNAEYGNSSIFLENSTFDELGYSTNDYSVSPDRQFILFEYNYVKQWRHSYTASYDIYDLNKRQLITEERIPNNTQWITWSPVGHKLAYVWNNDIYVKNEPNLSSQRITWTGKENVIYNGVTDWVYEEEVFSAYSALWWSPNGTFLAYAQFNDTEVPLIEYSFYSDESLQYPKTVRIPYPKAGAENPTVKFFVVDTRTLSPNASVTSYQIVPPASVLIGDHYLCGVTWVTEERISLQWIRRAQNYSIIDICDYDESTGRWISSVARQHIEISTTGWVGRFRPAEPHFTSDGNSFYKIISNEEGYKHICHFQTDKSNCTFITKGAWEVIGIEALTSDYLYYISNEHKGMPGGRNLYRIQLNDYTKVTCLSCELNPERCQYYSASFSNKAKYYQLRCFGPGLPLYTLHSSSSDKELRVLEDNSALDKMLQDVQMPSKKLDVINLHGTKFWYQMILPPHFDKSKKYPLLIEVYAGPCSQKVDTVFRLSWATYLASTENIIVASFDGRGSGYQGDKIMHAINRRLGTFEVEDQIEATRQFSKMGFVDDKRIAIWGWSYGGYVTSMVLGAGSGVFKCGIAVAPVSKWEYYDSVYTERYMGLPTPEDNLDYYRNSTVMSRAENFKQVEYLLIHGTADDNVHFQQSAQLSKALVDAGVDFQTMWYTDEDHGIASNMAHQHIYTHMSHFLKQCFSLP

With `Cn1c(=O)n(CCc2ccccc2)c(=O)c2c1nc(N1CCCNCC1)n2Cc1ccccc1` [Control compound 1, reference compound] as the compound, how does the IC50 read?
The IC50 was 24.1 nM.

These compounds were tested on male C57BL/6N mouse (assay: Effect on glucose tolerance of normal mouse (oral glucose loading)). Details: 2 h, 1 mg/kg oral, 30 min before glucose 2 g/kg, AUC0-120, 0.5% MC = 100%, NVP DPP728 10 mg/kg = 0%, lower = better, read-out: Improvement degree of glucose tolerance.
Format: in vivo
Description: Effect on Glucose Tolerance of Normal Mouse
male C57BL/6N mouse (purchased from CHARLES RIVER JAPAN, INC.)
A suspension of the test compound and NVP DPP728 or 0.5% MC solution (solvent control group) were orally administered at a dose of 10 mL/kg, and after 30 minutes, glucose solution was orally administered at a dose of 10 mL/kg. Glucose was orally administered at a dose of 2 g/kg.
Immediately before the administration of the test substance and NVP DPP728, immediately before the administration of the glucose solution and at 30 minutes, 60 minutes, and 120 minutes after the administration, a tail vein of the mouse was injured to slightly bleed by a razor under no anesthesia. 10 μl of blood was collected and was immediately mixed with 0.6M perchloric acid (140 μl). Glucose in the supernatant obtained by centrifugation (1500 g, 10 minutes, 4° C., refrigerated centrifuge GS-6KR, Beckman Instruments, Inc.) was measured using Glucose CII-Test Wako (Wako Pure Chemical Industries, Ltd.).
Area under the curve of blood glucose level-time (AUC0-120; Area Under the Curve) from the time of administration of glucose to 120 minutes after administration was calculated for respective administration groups, i.e., 0.5% MC solution, NVP DPP728, and the test compounds. Taking the AUC0-120 of the 0.5% MC solution administration group as 100% and the AUC0-120 of NVP DPP728 (10 mg/kg) administration group as 0%, the improvement degree of the glucose tolerance of a test compound was calculated using the following formula: Improvement degree of the glucose tolerance (%)=(AUC0-120 of the test compound−AUC0-120 of the NVP DPP728 (10 mg/kg) administration group)/(AUC0-120 of the 0.5% MC solution administration group−AUC0-120 of the NVP DPP728 (10 mg/kg) administration group)×100. • The lower the % value, the greater the improvement degree of the glucose tolerance will be.

For `CC#CCn1c(N2CCNCC2)nc2c1c(=O)n(CCc1ccccc1)c(=O)n2CC(=O)OCC` [Example 326, [7-(2-Butynyl)-2,6-dioxo-1-(2-phenethyl)-8-(piperazin-1-yl)-1,2,6,7-tetrahydropurin-3-yl]acetic acid ethyl ester hydrochloride], which response vs control in vivo at 1 mg/kg is on record?
Its response vs control in vivo at 1 mg/kg is -19.2%.

Same assay, conditions: 2 h, 3 mg/kg oral, 30 min before glucose 2 g/kg, AUC0-120, 0.5% MC = 100%, NVP DPP728 10 mg/kg = 0%, lower = better, read-out: Improvement degree of glucose tolerance

For `Cn1c(=O)n(CCc2ccccc2)c(=O)c2c1nc(N1CCCNCC1)n2Cc1ccccc1` [Control compound 1, reference compound], which response vs control in vivo at 3 mg/kg is on record?
The response vs control in vivo at 3 mg/kg was 49.2%.

Which response vs control in vivo at 3 mg/kg does the source give for `NC(=O)Cn1c(=O)[nH]c(=O)c2c1nc(N1CCNCC1)n2-c1ccccc1Cl` [Example 194, 2-[7-(2-Chlorophenyl)-2,6-dioxo-8-(piperazin-1-yl)-1,2,6,7-tetrahydropurin-3-yl]-acetamide trifluoroacetate] here?
The response vs control in vivo at 3 mg/kg was 9.9%.

How did the response vs control in vivo at 3 mg/kg turn out when `CC#CCn1c(N2CCNCC2)nc2c1c(=O)n(C)c(=O)n2CC` [Example 216, 7-(2-Butynyl)-3-ethyl-1-methyl-8-(piperazin-1-yl)-3,7-dihydropurine-2,6-dione trifluoroacetate] was run?
Its response vs control in vivo at 3 mg/kg is -5%.

For `CC#CCn1c(N2CCNCC2)nc2c1c(=O)n(C)c(=O)n2Cc1ccccc1` [Example 218, 7-(2-Butynyl)-3-benzyl-1-methyl-8-(piperazin-1-yl)-3,7-dihydropurine-2,6-dione trifluoroacetate], which response vs control in vivo at 3 mg/kg is on record?
The response vs control in vivo at 3 mg/kg was 16.8%.

For `CC#CCn1c(N2CCNCC2)nc2c1c(=O)n(C)c(=O)n2CC(=O)OC` [Example 219, [7-(2-Butynyl)-1-methyl-2,6-dioxo-8-(piperazin-1-yl)-1,2,6,7-tetrahydropurin-3-yl]acetic acid methyl ester trifluoroacetate], which response vs control in vivo at 3 mg/kg is on record?
The response vs control in vivo at 3 mg/kg was -1.4%.

For `CC#CCn1c(N2CCNCC2)nc2c1c(=O)n(C)c(=O)n2CC1CCCO1` (centres unmarked) [Example 226, 7-(2-Butynyl)-3-(2-tetrahydrofuranyl)methyl-1-methyl-8-(piperazin-1-yl)-3,7-dihydropurine-2,6-dione trifluoroacetate], which response vs control in vivo at 3 mg/kg is on record?
The response vs control in vivo at 3 mg/kg was -5.2%.

Which response vs control in vivo at 3 mg/kg does the source give for `CC#CCn1c(N2CCNCC2)nc2c1c(=O)n(C)c(=O)n2C(C(=O)OC)c1ccccc1` (centres unmarked) [Example 240, [7-(2-Butynyl)-1-methyl-2,6-dioxo-8-(piperazin-1-yl)-1,2,6,7-tetrahydropurin-3-yl]phenyl acetic acid methyl ester trifluoroacetate] here?
The response vs control in vivo at 3 mg/kg was -2.8%.

With `CC#CCn1c(N2CCNCC2)nc2c1c(=O)n(C)c(=O)n2CCC` [Example 243, 7-(2-Butynyl)-3-propyl-1-methyl-8-(piperazin-1-yl)-3,7-dihydropurine-2,6-dione trifluoroacetate] as the compound, how does the response vs control in vivo at 3 mg/kg read?
The response vs control in vivo at 3 mg/kg was 8.4%.

How did the response vs control in vivo at 3 mg/kg turn out when `CC#CCn1c(N2CCNCC2)nc2c1c(=O)n(C)c(=O)n2CC(=O)c1ccccc1` [Example 256, 7-(2-Butynyl)-3-(2-oxo-2-phenethyl)-1-methyl-8-(piperazin-1-yl)-3,7-dihydropurine-2,6-dione trifluoroacetate] was run?
The response vs control in vivo at 3 mg/kg was 2.4%.

For `CC#CCn1c(N2CCNCC2)nc2c1c(=O)n(C)c(=O)n2C(C)C(=O)OCC` (centres unmarked) [Example 257, 2-[7-(2-Butynyl)-1-methyl-2,6-dioxo-8-(piperazin-1-yl)-1,2,6,7-tetrahydropurin-3-yl]propionic acid ethyl ester trifluoroacetate], which response vs control in vivo at 3 mg/kg is on record?
Its response vs control in vivo at 3 mg/kg is 10.5%.

For `CC#CCn1c(N2CCNCC2)nc2c1c(=O)n(C)c(=O)n2C1CCOC1=O` (centres unmarked) [Example 263, 7-(2-Butynyl)-3-(2-oxo-tetrahydrofuran-3-yl)-1-methyl-8-(piperazin-1-yl)-3,7-dihydropurine-2,6-dione trifluoroacetate], which response vs control in vivo at 3 mg/kg is on record?
Its response vs control in vivo at 3 mg/kg is 16.4%.

For `CC#CCn1c(N2CCNCC2)nc2c1c(=O)n(C)c(=O)n2CCOCC` [Example 266, 7-(2-Butynyl)-3-(2-ethoxyethyl)-1-methyl-8-(piperazin-1-yl)-3,7-dihydropurine-2,6-dione trifluoroacetate], which response vs control in vivo at 3 mg/kg is on record?
The response vs control in vivo at 3 mg/kg was -2.3%.

How did the response vs control in vivo at 3 mg/kg turn out when `CC#CCn1c(N2CCNCC2)nc2c1c(=O)n(C)c(=O)n2C(C)C` [Example 270, 7-(2-Butynyl)-3-isopropyl-1-methyl-8-(piperazin-1-yl)-3,7-dihydropurine-2,6-dione trifluoroacetate] was run?
Its response vs control in vivo at 3 mg/kg is 7.3%.

How did the response vs control in vivo at 3 mg/kg turn out when `CC#CCn1c(N2CCNCC2)nc2c1c(=O)n(C)c(=O)n2CC(=O)C(C)(C)C` [Example 274, 7-(2-Butynyl)-3-(3,3-dimethyl-2-oxobutyl)-1-methyl-8-(piperazin-1-yl)-3,7-dihydropurine-2,6-dione trifluoroacetate] was run?
The response vs control in vivo at 3 mg/kg was 1.9%.

How did the response vs control in vivo at 3 mg/kg turn out when `CC#CCn1c(N2CCNCC2)nc2c1c(=O)n(C)c(=O)n2C1CCNC1=O` (centres unmarked) [Example 284, 7-(2-Butynyl)-1-methyl-3-(2-oxopyrrolidin-3-yl)-8-(piperazin-1-yl)-3,7-dihydropurine-2,6-dione hydrochloride] was run?
The response vs control in vivo at 3 mg/kg was 11.3%.

Which response vs control in vivo at 3 mg/kg does the source give for `CC#CCn1c(N2CCNCC2)nc2c1c(=O)[nH]c(=O)n2CCOCC` [Example 321, 7-(2-Butynyl)-3-(2-ethoxyethyl)-8-(piperazin-1-yl)-3,7-dihydropurine-2,6-dione trifluoroacetate] here?
The response vs control in vivo at 3 mg/kg was 16.9%.

How did the response vs control in vivo at 3 mg/kg turn out when `CC#CCn1c(N2CCNCC2)nc2c1c(=O)n(CC(=O)c1ccccc1)c(=O)n2CCOCC` [Example 323, 7-(2-Butynyl)-3-(2-ethoxyethyl)-1-(2-oxo-2-phenylethyl-8-(piperazin-1-yl)-3,7-dihydropurine-2,6-dione trifluoroacetate] was run?
Its response vs control in vivo at 3 mg/kg is 0.5%.

How did the response vs control in vivo at 3 mg/kg turn out when `CC#CCn1c(N2CCNCC2)nc2c1c(=O)n(CCc1ccccc1)c(=O)n2CC(=O)OCC` [Example 326, [7-(2-Butynyl)-2,6-dioxo-1-(2-phenethyl)-8-(piperazin-1-yl)-1,2,6,7-tetrahydropurin-3-yl]acetic acid ethyl ester hydrochloride] was run?
The response vs control in vivo at 3 mg/kg was -30.6%.
